From patent publication US8278072B1, “Method for synthesis of sialylated products using reversible sialylation” (Health Research, Inc., priority 2007, dated 2012)

How the values were obtained:
T47D = assay: Reversible sialyltransferase activity in cell extract; assay type: biochemical, human; details: T47D (breast) cell extract, 1.0 mM 5′-CMP, 16 h, pH 6.0
Description: (§1) Thus, [9-^3H[4]] was used as donor and D-Fucβ1,3GalNAcα-O-Bn as acceptor in the presence of 5′-CMP and solubilized cell extracts. Of the cells tested, human prostate cancer cell lines LNCaP and PC-3 contained significant reversible sialyltransferase activity.

LS180 = assay: as above; assay type: biochemical, human; details: LS180 (colon) cell extract, 1.0 mM 5′-CMP, 16 h, pH 6.0
Description: as §1

MDA-MB-435 = assay: as above; assay type: biochemical, human; details: MDA-MB-435 (breast) cell extract, 1.0 mM 5′-CMP, 16 h, pH 6.0
Description: as §1

PC3 = assay: as above; assay type: biochemical, human; details: PC3 (prostate) cell extract, 1.0 mM 5′-CMP, 16 h, pH 6.0
Description: as §1

MCF-7 = assay: as above; assay type: biochemical, human; details: MCF-7 (breast) cell extract, 1.0 mM 5′-CMP, 16 h, pH 6.0
Description: as §1

MDA-MB231 = assay: as above; assay type: biochemical, human; details: MDA-MB231 (breast) cell extract, 1.0 mM 5′-CMP, 16 h, pH 6.0
Description: as §1

HL60 = assay: as above; assay type: biochemical, human; details: HL60 (leukemia) cell extract, 1.0 mM 5′-CMP, 16 h, pH 6.0
Description: as §1

LNCaP = assay: as above; assay type: biochemical, human; details: LNCaP (prostate) cell extract, 1.0 mM 5′-CMP, 16 h, pH 6.0
Description: as §1

ZR75-1 = assay: as above; assay type: biochemical, human; details: ZR75-1 (breast) cell extract, 1.0 mM 5′-CMP, 16 h, pH 6.0
Description: as §1

ST3Gal-II = target: T1, ST3Gal-II (Rattus norvegicus, UniProt Q11205); assay: Serial transfer of sialic acid from donor via 5′-CMP to acceptors (scheme-II); assay type: biochemical; details: 0.15 mM donor; 2 mM 5′-CMP with core-2 donors
T1 construct: purchased Calbiochem
T1 sequence (Q11205 1-350): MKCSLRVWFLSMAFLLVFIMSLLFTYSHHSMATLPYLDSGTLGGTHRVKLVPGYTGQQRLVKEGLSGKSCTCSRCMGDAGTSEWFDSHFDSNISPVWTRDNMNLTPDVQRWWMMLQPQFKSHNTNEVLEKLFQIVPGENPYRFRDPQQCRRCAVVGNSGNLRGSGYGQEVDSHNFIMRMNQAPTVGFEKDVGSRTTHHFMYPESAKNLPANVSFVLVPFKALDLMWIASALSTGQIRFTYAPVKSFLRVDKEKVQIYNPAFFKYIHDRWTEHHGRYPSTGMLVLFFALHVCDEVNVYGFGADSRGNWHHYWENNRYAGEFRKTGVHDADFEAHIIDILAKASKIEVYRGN

amount of acceptor [5] required for comparable transfer (ST3Gal-II): ~6 mM
Substance: [9-^3H]NeuAcα2,3Galβ1,3(6-O-SulfoGlcNAcβ1,6)GalNAcα-O—Al [[4]]
Transfer of [9-3H]NeuAc from [9-3H[4]] to [5] (T47D): 0.52 CPM × 10^−3/mg protein
Transfer of [9-3H]NeuAc from [9-3H[4]] to [5] (LS180): 0.01 CPM × 10^−3/mg protein
Transfer of [9-3H]NeuAc from [9-3H[4]] to [5] (MDA-MB-435): 0.69 CPM × 10^−3/mg protein
Transfer of [9-3H]NeuAc from [9-3H[4]] to [5] (PC3): 4.72 CPM × 10^−3/mg protein
Transfer of [9-3H]NeuAc from [9-3H[4]] to [5] (MCF-7): 0.57 CPM × 10^−3/mg protein
Transfer of [9-3H]NeuAc from [9-3H[4]] to [5] (MDA-MB231): 0.09 CPM × 10^−3/mg protein
Transfer of [9-3H]NeuAc from [9-3H[4]] to [5] (HL60): 0.76 CPM × 10^−3/mg protein
Transfer of [9-3H]NeuAc from [9-3H[4]] to [5] (LNCaP): 19.89 CPM × 10^−3/mg protein
Transfer of [9-3H]NeuAc from [9-3H[4]] to [5] (ZR75-1): 1.32 CPM × 10^−3/mg protein
